The source made the active and inactive calls.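 The calls were made as follows: active = compound flagged as a likely artifact in this counterscreen, with IC50 of 10 µM or lower; inactive = IC50 above 10 µM.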

In the test the test system is HEK293 Gal4-VP16 luciferase reporter counterscreen, luminescence. The test is described as follows: VP16-driven transactivation reporter suppression potency – cell-based, luminescence, HEK293, counter-screen for COUP-TFII inhibitor project, dose response (AID 720547).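 Also: potency for lowering the luciferase signal driven by Gal4-VP16.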 Background: The purpose of a counterscreen is to sort out artefacts and off-target activity.
For the compound `Cc1sc(NC(=O)CN2CCOCC2)nc1-c1ccc2c(c1)CCN2S(=O)(=O)c1ccccc1`, the IC50 (commonly the concentration that inhibits the measured activity by half) is > 85.4 µM (inactive). Regarding `Cc1c(C(=O)N2CCN(Cc3ccc4c(c3)OCO4)CC2)sc2ncnc(N3CCN(c4ccccc4F)CC3)c12`, the IC50 was 62.7 µM (inactive). Take `N=c1ccn(CC(=O)c2ccc(-c3ccccc3)cc2)cc1`: the IC50 is > 85.4 µM (inactive). For `COc1cccc(CN(C)C(=O)c2ccc(OCC(=O)Nc3cccc(C(F)(F)F)c3)c(OC)c2)c1`, the IC50 was > 28.5 µM (inactive). Then `CCSc1nc2ccccc2n1C(=O)/C=C/c1ccc(OC)c(OC)c1`, with 19.4 µM (inactive); and `Cc1nn(C)c(C)c1CN(Cc1nc(CCC(C)C)no1)C(C)C`, with > 85.4 µM (inactive).

With `CC(C)CNc1ncnc2c1ncn2[C@H]1CN(Cc2ccc(-c3ccccc3)cc2)C[C@@H](CO)O1`, the IC50 is 61.9 µM (inactive).

Consider `O=C(CSc1nnc(Cn2nnc3ccccc32)o1)N(Cc1ccc(F)cc1)c1ccccc1`, for which the IC50 is > 85.4 µM (inactive). Take `Cc1cccc(Nc2nc(-c3c(C)nc4ccccn34)cs2)c1`: the IC50 was 66.3 µM (inactive). Consider `CCOC(=O)C1CCCN(S(=O)(=O)c2ccc(S(=O)(=O)N(CC)CC)cc2)C1` (stereo not drawn), for which the IC50 is > 85.4 µM (inactive).

For the compound `OC[C@@H]1CN(Cc2ccc(-c3ccccc3)cc2)C[C@H](n2cnc3c(NC4CCCC4)ncnc32)O1`, the IC50 is 53.4 µM (inactive).

For the compound `COCCn1c(C)c(C)c2c(NCCc3ccccc3)ncnc21`, the IC50 was > 85.3 µM (inactive). For `CC(C)(C)c1ccc(C2CC2C(=O)N/N=C\c2ccc[nH]2)cc1` (stereo not drawn), the IC50 is > 85.4 µM (inactive). As to `COc1ccc(-n2cc(-c3ccc(C)cc3)[n+]3c2SCC3)cc1`, the IC50 was > 85.4 µM (inactive). Take `Oc1ccc(Oc2ccc3c(C(F)(F)F)cc(C(F)(F)F)nc3n2)cc1`: the IC50 is 37 µM (inactive).

With `Cn1c(=O)c2[nH]c(CCCCCCCCc3nc4ccccc4[nH]3)nc2n(C)c1=O`, the IC50 is > 28.5 µM (inactive). On to `COc1ccc(N2CCN(c3ncnc4c3[nH]c3ccccc34)CC2)cc1`, for which the IC50 is > 85.4 µM (inactive). The figure for `COc1cc(NC(=O)COc2cc(O)c3c(c2)OC(C)(C)CC3=O)cc(OC)c1OC` is > 28.5 µM (inactive); for `c1ccc(C(Cc2nc(-c3ccncc3)no2)c2ccccc2)cc1` it is > 85.4 µM (inactive). Then `Cc1cc(C(=O)NC2CCCc3c2cnn3-c2cccc(C)c2C)n(C)n1` (stereo not drawn), with > 85.4 µM (inactive); and `Cc1[nH]nc(C(F)(F)F)c1N=NN1CCOCC1`, with 51.6 µM (inactive); and `Fc1ccc2[nH]c3c(N4CCc5ccccc5C4)ncnc3c2c1`, with 77.5 µM (inactive).

Regarding `Cc1nn(C)c(C(=O)NCc2ccc(Cl)cc2)c1Cl`, the IC50 was > 85.4 µM (inactive). The figure for `CC(C)(C)c1ccc(-c2cc(-c3ccccc3O)[nH]n2)cc1` is 36.6 µM (inactive). In the case of `Cc1nc2ccccc2n1Cc1ccc(Br)cc1`, the IC50 is > 85.3 µM (inactive). For the compound `COc1ccc(NS(=O)(=O)c2ccc(-c3coc(C)n3)cc2)cc1OC`, the IC50 was > 85.4 µM (inactive). Take `Cc1cc(C)c(CN2CCN(C(=O)Cn3cnc4c(NCc5ccccc5)ncnc43)CC2)c(C)c1`: the IC50 was > 85.4 µM (inactive). As to `CC(=O)c1c(C)[nH]c(C(=O)OCC(=O)Nc2ccc(Cl)cc2[N+](=O)[O-])c1C`, the IC50 was > 85.4 µM (inactive). Then `CC(=O)N[C@@H](C)c1nc2ccccc2n1CCCN1CCN(c2nc(-c3ccc(C)cc3)cs2)CC1`, with 57 µM (inactive).

Take `Cc1cc(/C=C2/SC(=S)N(c3cccc(Cl)c3)C2=O)c(C)n1-c1cccnc1`: the IC50 is > 85.4 µM (inactive). For the compound `CC(=O)Nc1ccc(SCC(=O)c2cc(C)n(Cc3cccs3)c2C)cc1`, the IC50 is > 85.4 µM (inactive). The figure for `CCOC(=O)N1CCN(C(=O)CSCC(=O)Nc2nc(-c3ccc(-c4ccccc4)cc3)cs2)CC1` is > 28.4 µM (inactive); for `CN(CC1CCCO1)S(=O)(=O)c1ccc(C(=O)Nc2nc3cc4c(cc3s2)OCO4)cc1` (stereo not drawn) it is > 85.4 µM (inactive); for `COc1ccc(CNC(=O)c2cccc3c(-c4cccnc4)coc23)cc1OC` it is 43.4 µM (inactive). In the case of `O=C(NCC(c1ccco1)N1CCCC1)c1ccc(Cl)c(S(=O)(=O)N2CCc3ccccc32)c1` (stereo not drawn), the IC50 is > 28.5 µM (inactive).

For `CC(=O)c1c(C)[nH]c(C(=O)COc2cc(C)ccc2C(C)C)c1C`, the IC50 is > 85.4 µM (inactive). Turning to `COc1ccccc1-n1c(-c2ccccc2)c[n+]2c1CCc1ccccc1-2`, the IC50 was > 85.4 µM (inactive). In the case of `Cc1ccc(OCCN2CCN(c3ncnc4sc(C)c(C)c34)CC2)cc1`, the IC50 was > 85.4 µM (inactive). Consider `COc1ccccc1-c1cc2nc(-c3ccccc3)cc(N3CCN(C(=O)c4ccco4)CC3)n2n1`, for which the IC50 is 10.3 µM (inactive).

`O=C(CSc1nnc(-c2cccnc2)s1)Nc1ccnc2ccccc12`: the IC50 was > 85.4 µM (inactive). In the case of `CCOc1cc(S(=O)(=O)NCc2ccncc2)ccc1Cl`, the IC50 was > 85.4 µM (inactive). Then `Cc1cc(C)c(O)c(C(=O)CC2CC(=O)NC(=O)C2)c1`, with > 85.4 µM (inactive). Consider `OC[C@@H]1CN(Cc2ccc(-c3ccccc3)cc2)C[C@H](n2cnc3c(NCc4ccncc4)ncnc32)O1`, for which the IC50 was 59.3 µM (inactive). Take `CC(=O)c1c(C)[nH]c(C(=O)OCCCCN2C(=O)c3ccccc3C2=O)c1C`: the IC50 is 63.7 µM (inactive). `CCCCCCn1ccc(=N)cc1`: the IC50 was > 85.4 µM (inactive). As for `COc1ccc(NC(=O)C2Cc3c(-c4ccc5c(c4)OCO5)ccnc3O2)cc1OC` (stereo not drawn), the IC50 was > 85.4 µM (inactive).

Take `COc1ccc(C2=Nn3c([n+](C)c4ccccc43)SC2)cc1`: the IC50 is > 85.4 µM (inactive). For `O=C(Nc1ccc(Oc2ccccc2)cc1)c1csc([C@H]2C[C@H](O)[C@@H](CO)O2)n1`, the IC50 was > 85.4 µM (inactive). Regarding `CCN(CC)S(=O)(=O)c1cccc(NC(=O)CNc2cccc(S(=O)(=O)N3CCCC3)c2)c1`, the IC50 was > 85.4 µM (inactive).

Turning to `Cn1nc(C(C)(C)C)cc1C(=O)NCc1cc(F)cc2c1OCOC2`, the IC50 is > 85.4 µM (inactive). Consider `Cc1ccccc1Cn1c(C)nc2ccccc21`, for which the IC50 is > 85.4 µM (inactive).

In the case of `C/C(=N\NC(N)=S)C1C2C3CC4C5CC(C42)C1C53` (stereo not drawn), the IC50 was > 85.4 µM (inactive). The figure for `O=C(Nc1ccncc1)c1ccc(Cl)c(S(=O)(=O)N2CCc3ccccc32)c1` is 60.6 µM (inactive). For `CC(=O)c1ccc(N2CCN(C(=S)Nc3ccc(Oc4ccccc4)cc3)CC2)cc1`, the IC50 is > 85.4 µM (inactive). With `CC1=CC(=Cc2sc3ccccc3[n+]2C)C=C(C)O1`, the IC50 is 84.1 µM (inactive). For `CC[C@H]1CN2CCc3cc(OC)c(OC)cc3C2C[C@@H]1C[C@H]1NCCc2cc(OC)c(OC)cc21` (stereo partly drawn), the IC50 is > 85.4 µM (inactive).

Regarding `Cc1nnsc1NC(=O)OCc1ccc(C(C)(C)C)cc1`, the IC50 is > 85.4 µM (inactive).

For the compound `CCC(C)C(NC(=O)CCCNC(=O)CCC(=O)OC1O[C@H]2OC3(C)CC[C@H]4[C@H](C)CCC(C1C)C24OO3)C(=O)O` (stereo partly drawn), the IC50 was > 85.4 µM (inactive). The figure for `Cc1nc2c(-c3ccccc3)cnn2c(N)c1-c1ccccc1` is 59.7 µM (inactive); for `Cc1sc2ncnc(NCCc3ccc(S(N)(=O)=O)cc3)c2c1C` it is > 85.4 µM (inactive). Turning to `Cc1cc(C)c(S(=O)(=O)NCc2ccncc2)c(C)c1`, the IC50 was > 85.4 µM (inactive). As for `CC(C)(C)c1ccc(CSc2cnn(C(C)(C)C)c(=O)c2Cl)cc1`, the IC50 is > 85.4 µM (inactive).

For the compound `C=CCC1(CC=C)CCCN1C(=O)c1cc(COc2ccc(C)nc2)on1`, the IC50 is > 85.4 µM (inactive). For the compound `Cc1cccc(Nc2nc(NCc3ccco3)c3ccccc3n2)c1`, the IC50 is 53 µM (inactive). As for `COc1ccc(CCNc2ncnc3sccc23)cc1OC`, the IC50 was > 85.4 µM (inactive). The figure for `O=C(c1cc(COc2cccc3cnccc23)on1)N1CCCC(CCCO)C1` (stereo not drawn) is > 85.4 µM (inactive); for `O=C(NC(Nc1nc2ccc([N+](=O)[O-])cc2s1)(C(F)(F)F)C(F)(F)F)c1cccnc1` it is > 85.4 µM (inactive); for `Cc1ccc(-n2nc3c(=O)n(C(C)C(=O)NCCCc4ccccc4)nc(C)c3c2C)cc1` (stereo not drawn) it is > 85.4 µM (inactive).

As to `Cc1ccnc(Nc2nc(-c3sc(C)nc3C)cs2)c1`, the IC50 was > 85.3 µM (inactive). With `Cc1cc(C(=O)NC2CCCc3c2cnn3-c2ccc(C(C)(C)C)cc2)nn1C` (stereo not drawn), the IC50 is > 85.4 µM (inactive).

`Cc1cc(NC2CCCC2)n2ncc(-c3ccccc3)c2n1`: the IC50 was 62.9 µM (inactive). In the case of `COc1ccc(OC)c(CCNC(=O)Cn2nc(C)c3c(C)n(-c4ccc(C)cc4)nc3c2=O)c1`, the IC50 is > 28.5 µM (inactive).

Consider `CCOC(=O)c1cnc(-n2nc(C)cc2C)nc1NC1CCCC1`, for which the IC50 was 50.3 µM (inactive). In the case of `COc1ccc(CNc2ncnc3ccccc23)cc1`, the IC50 was > 85.4 µM (inactive). Then `O=C(CSc1cc(Cl)ccc1Cl)N/N=C/c1ccc[nH]1`, with > 85.4 µM (inactive); and `CCNc1nc(-c2sc(NC(=O)C(C)(C)C)nc2C)c(-n2cc(-c3ccccc3)nn2)s1`, with 21.1 µM (inactive); and `Cc1ccc(-n2nc3c(=O)n(C(C)C(=O)NCc4ccccc4Cl)nc(C)c3c2C)cc1` (stereo not drawn), with 81.8 µM (inactive).

Turning to `OC[C@@H]1CN(Cc2ccc(-c3ccccc3)cc2)C[C@H](n2cnc3c(NC4CCC4)ncnc32)O1`, the IC50 was 64.1 µM (inactive). Consider `C[n+]1c2n(c3ccccc31)N=C(c1ccc(-c3ccccc3)cc1)CS2`, for which the IC50 is > 28.5 µM (inactive). Then `CSc1ccccc1OCc1cc(C(=O)N2CCC(c3ccncc3)CC2)no1`, with > 85.4 µM (inactive); and `O=C(c1ccccc1)C1CCN(c2ncnc3sccc23)CC1`, with > 85.5 µM (inactive); and `Cc1ccc(-c2csc(NC(=O)C3CCN(S(=O)(=O)c4cccs4)CC3)n2)cc1`, with > 85.4 µM (inactive). As to `c1ccc2c(c1)CCN(c1ncnc3c1[nH]c1ccccc13)C2`, the IC50 is 53.8 µM (inactive).

The values are drawn from PubChem BioAssay AID720547 (The Scripps Research Institute Molecular Screening Center, 2013).
